Test results as given in the supplement of paper PMC10307832.

Key:
Test in all cases: relative viability (nuclei count vs DMSO), 5 days (fraction); higher = more cells survive
Sulindac + Linsitinib = compound: CC1=C(CC(=O)O)c2cc(F)ccc2/C1=C\c1ccc([S+](C)[O-])cc1 [Sulindac] + C[C@]1(O)C[C@@H](c2nc(-c3ccc4ccc(-c5ccccc5)nc4c3)c3c(N)nccn32)C1 [Linsitinib] (partner 1 µM)
Outline: (§1)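 Lung cancer cell lines, seeded in 1536-well plates, were treated the following day by pin tool with a single drug or with five library-drug doses (not always all listed) in √10 steps on top of a fixed anchor-drug dose. Cells were fixed and nuclei stained in one step after 5 days, and nuclei were counted. Relative viability is the nuclei count for treated wells divided by that for vehicle wells, reported as medians of duplicate plates.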

[1] = compound: O=c1[nH]cc(F)c(=O)[nH]1 [5-Fluorouracil] + CS(=O)(=O)CCNCc1ccc(-c2ccc3ncnc(Nc4ccc(OCc5cccc(F)c5)c(Cl)c4)c3c2)o1 [Lapatinib] (partner 2 µM)
Outline: as §1

Sulindac + Decitabine = compound: CC1=C(CC(=O)O)c2cc(F)ccc2/C1=C\c1ccc([S+](C)[O-])cc1 [Sulindac] + Nc1ncn([C@H]2C[C@H](O)[C@@H](CO)O2)c(=O)n1 [Decitabine] (partner 2 µM)
Outline: as §1

[2] = compound: O=c1[nH]cc(F)c(=O)[nH]1 [5-Fluorouracil] + CC(C)C[C@H](NC(=O)[C@H](Cc1ccccc1)NC(=O)c1cnccn1)B(O)O [Bortezomib] (partner 0.002 µM)
Outline: as §1

Cell Line | relative viability (Sulindac + Linsitinib; first compound 0.08 µM) | relative viability (Sulindac + Linsitinib; first compound 0.253 µM) | relative viability (Sulindac + Linsitinib; first compound 0.8 µM) | relative viability (Sulindac + Linsitinib; first compound 2.53 µM) | relative viability (Sulindac + Linsitinib; first compound 8 µM) | relative viability ([1]; first compound 0.02 µM) | relative viability ([1]; first compound 0.2 µM) | relative viability ([1]; first compound 0.6325 µM) | relative viability ([1]; first compound 2 µM) | relative viability (Sulindac + Decitabine; first compound 0.08 µM) | relative viability (Sulindac + Decitabine; first compound 0.253 µM) | relative viability (Sulindac + Decitabine; first compound 0.8 µM) | relative viability (Sulindac + Decitabine; first compound 2.53 µM) | relative viability (Sulindac + Decitabine; first compound 8 µM) | relative viability ([2]; first compound 0.02 µM) | relative viability ([2]; first compound 0.2 µM) | relative viability ([2]; first compound 0.6325 µM) | relative viability ([2]; first compound 2 µM)
201T | 1.06 | 1.04 | 1.1 | 1.02 | 1.01 | 1.05 | 0.964 | 0.479 | 0.376 | 0.879 | 0.874 | 0.818 | 0.848 | 0.928 | 1.11 | 1.04 | 0.417 | 0.346
A549 | 0.532 | 0.535 |  | 0.572 | 0.641 | 1.09 | 0.656 | 0.456 | 0.135 | 0.262 | 0.247 |  | 0.29 | 0.232 |  |  |  | 
A-427 | 1.1 | 1.14 | 1.11 | 1.14 | 1.11 | 1.02 | 1.07 | 1.07 | 0.792 | 0.469 | 0.521 | 0.552 | 0.52 | 0.6 | 0.888 | 1.07 | 0.986 | 0.532
ABC-1 | 1.22 | 0.806 | 0.627 | 0.629 | 0.741 | 1.33 | 1.23 | 1.24 | 1.13 | 1.04 | 1.09 | 1.02 | 0.821 | 1.16 | 0.251 | 0.274 | 0.361 | 0.375
BEN | 1.02 | 0.892 | 0.571 | 0.967 | 1.07 | 0.658 | 0.628 | 0.615 | 0.602 | 0.745 | 0.845 | 0.697 | 0.685 | 0.814 | 0.779 | 0.869 | 0.655 | 0.655
CAL-12T | 0.787 | 0.858 | 0.593 | 0.795 | 0.705 | 0.573 | 0.897 | 0.649 | 0.559 |  |  |  |  |  | 1.13 | 1.05 | 0.911 | 0.751
COR-L23 | 1.18 | 0.925 |  | 0.906 | 0.999 | 1.03 | 0.921 | 0.48 | 0.253 | 0.436 | 0.446 | 0.425 | 0.421 | 0.526 | 1.04 | 0.85 | 0.41 | 0.221
COR-L 105 | 1.1 | 0.857 | 0.729 | 0.992 | 1.13 | 0.362 | 0.409 | 0.367 | 0.381 | 0.648 | 0.698 | 0.621 | 0.538 | 0.769 | 0.662 | 0.704 | 0.597 | 0.401
Calu-6 | 1.29 | 1.07 | 0.738 | 1.03 | 1.11 | 1.04 | 1.01 | 0.908 | 0.537 |  |  |  |  |  | 0.984 | 0.947 | 0.801 | 0.42
ChaGo-K-1 |  |  |  |  |  |  |  |  |  | 0.601 | 0.484 | 0.466 | 0.515 | 0.523 | 0.955 | 1.04 | 0.7 | 0.705
EBC-1 | 0.937 | 1.16 | 0.509 | 1.04 | 0.989 | 0.189 | 0.187 | 0.178 | 0.249 |  |  |  |  |  | 0.64 | 0.553 | 0.619 | 0.477
EKVX | 0.872 | 1 | 0.721 | 0.92 | 1.04 |  | 0.184 | 0.15 | 0.147 | 0.312 | 0.316 | 0.305 | 0.341 | 0.352 | 0.786 |  | 0.154 | 0.132
EMC-BAC-2 | 0.894 | 0.882 | 0.726 | 0.809 | 0.835 | 0.968 | 0.975 | 0.858 | 0.907 | 0.994 | 1 | 0.888 | 0.934 | 1.08 | 1.16 | 1.17 | 1.1 | 1.02
EPLC-272H | 1.04 |  | 0.751 | 1.17 | 1.15 | 0.97 | 0.879 | 0.358 | 0.339 | 0.313 |  | 0.301 | 0.369 | 0.428 | 0.891 | 0.733 | 0.376 | 0.254
H3255 | 0.923 | 1.03 | 0.745 | 1.02 | 1.1 | 0.269 | 0.264 | 0.255 | 0.257 | 0.577 | 0.662 | 0.503 | 0.566 | 0.615 | 0.804 | 0.867 | 0.684 | 0.544
HARA | 1.23 | 1.09 |  | 1.06 | 0.851 | 0.922 | 0.892 | 0.657 | 0.568 | 0.704 | 0.492 | 0.398 | 0.46 | 0.521 | 1.17 | 1.15 | 1.08 | 1.03
HCC-15 | 0.966 | 0.868 | 0.739 | 0.913 | 0.921 | 0.967 | 0.898 | 0.533 | 0.314 | 0.708 | 0.625 | 0.548 | 0.543 | 0.661 | 1.18 | 1.03 | 0.534 | 0.322
HCC-44 | 0.769 | 0.729 | 0.707 | 0.702 | 0.786 | 1.05 | 0.974 | 0.609 | 0.311 | 0.976 | 0.909 | 0.871 | 0.918 | 0.961 | 0.931 | 0.84 | 0.601 | 0.35
HCC-78 | 0.521 | 0.493 | 0.439 | 0.454 | 0.501 | 0.768 | 1.2 | 0.265 |  | 0.652 | 0.672 | 0.597 | 0.653 | 0.648 | 0.471 | 0.546 | 0.525 | 0.274
HCC-366 | 0.567 | 0.759 | 0.183 | 0.787 | 1.03 | 0.996 | 0.945 | 0.523 | 0.0471 | 0.388 | 0.317 |  | 0.334 | 0.412 | 1.08 | 0.946 | 0.523 | 0.0524
